± gives the expanded uncertainty stated by the source.
How the values were obtained:
[1] = 101 kPa, Liquid; for viscosity: Capillary tube (Ostwald / Ubbelohde) method; for mass density: Vibrating tube method
[2] = cn = amount concentration of the nth substance listed, in mol/dm3; conditions: 101 kPa, Liquid; for viscosity: Capillary tube (Ostwald / Ubbelohde) method; for mass density: Vibrating tube method

CO [methanol]
[1]
Conditions | mass density [kg/m3] | viscosity [mPa·s]
298.15 K | 786.62 ± 1 | 0.5451 ± 0.011
308.15 K | 777.18 ± 1 | 0.476 ± 0.01
318.15 K | 767.74 ± 1 | 0.4183 ± 0.0089

CCCC[N+](CCCC)(CCCC)CCCC.[Br-] [tetrabutylammonium bromide] + CO
[2]
Conditions | mass density, 298.15 K [kg/m3] | mass density, 308.15 K [kg/m3] | mass density, 318.15 K [kg/m3] | viscosity, 298.15 K [mPa·s] | viscosity, 308.15 K [mPa·s] | viscosity, 318.15 K [mPa·s]
c1 = 0.02 | 790.69 ± 1 | 780.94 ± 1 | 771.06 ± 1 | 0.5542 ± 0.012 | 0.4951 ± 0.01 | 0.439 ± 0.0093
c1 = 0.04 | 792.74 ± 1 | 783.43 ± 1 | 773.92 ± 1 | 0.581 ± 0.012 | 0.5135 ± 0.011 | 0.4469 ± 0.0095
c1 = 0.05 | 794.89 ± 1 | 785.33 ± 1 | 775.68 ± 1 | 0.5973 ± 0.013 | 0.5274 ± 0.011 | 0.4584 ± 0.0097

CO [methanol] + CCCC[N+](CCCC)(CCCC)CCCC.[Br-]
[2], c2 = 0
Conditions | mass density [kg/m3] | viscosity [mPa·s]
298.15 K | 786.62 ± 1 | 0.5451 ± 0.011
308.15 K | 777.18 ± 1 | 0.476 ± 0.01
318.15 K | 767.74 ± 1 | 0.4183 ± 0.0089

Reference: the NIST ThermoML archive (doi:10.1016/j.jct.2013.07.010)
